From US11352331B2, “Crystal and salt of 4-(naphthalen-1-yl)-4H-1,2,4-triazole compound and preparation method therefor” (MEDSHINE DISCOVERY INC., priority 2017, dated 2022)
Like-named read-outs stand apart in the source and are kept apart here.

What was measured:
Liver cells [1] = settings: Monkey; cited from earlier work
[2] = Liver microsomes, Dog; cited from earlier work
[3] = Liver microsomes, Monkey; cited from earlier work
[4] = Liver microsomes, Human; cited from earlier work
Liver cells [5] = settings: Dog; cited from earlier work
[6] = human, 0-144 hour, after lesinurad, cited from earlier work
human liver cells = assay: Metabolite detection after incubation in human liver cells for 120 minutes (LC-UV-MSn); type: in vitro ADME; settings: for UV area percentage: 10 μM
Experimental: The objective of this experiment is detect the metabolites of the compounds after incubation in human liver cells for 120 minutes using LC-UV-MS^n (n=1-2). After data collection, MetaboLynx™ software was used to analyze MS and MS^2 data.
After the cells were incubated with the samples for 2 hours, protein was precipitated using acetonitrile containing formic acid and then the mixture was centrifuged. The supernatant was taken out and blow-dried with nitrogen, and then redissolved and injected for analysis.

Liver cells [7] = settings: Human; cited from earlier work
Liver cells [8] = settings: Rat; cited from earlier work
[9] = Liver microsomes, Rat; cited from earlier work
[10] = Pharmacokinetics in cynomolgus monkeys after IV and PO administration; type: in vivo; settings: for half-life: read-out: Half-life T1/2 (converted); for Cmax: read-out: Peak concentration Cmax; for MRT inf: read-out: Residence time MRT0-inf; for Tmax: read-out: Time to peak Tmax; for Mutual transformation between the two axially chiral isomers in vivo: circulation system; for Vd: read-out: Apparent volume of distribution Vdss; for clearance: read-out: Clearance rate Cl; for C0: read-out: Initial concentration C0
Experimental: 24 healthy adult male cynomolgus monkeys were divided into 8 groups (there were IV and PO groups for each compound) with 3 animals per group.
An appropriate amount of the samples was weighted and dissolved in a certain amount of DMSO by ultrasound, followed by addition of PEG400 solution to obtain clear solutions (DMSO/PEG400/H2O (5/40/55)) of the compounds to be tested with a concentration of 2 mg/mL for IV administration.
An appropriate amount of the samples was weighted and dissolved in a certain amount of DMSO by ultrasound, followed by addition of 0.5% MC solution to obtain suspensions (DMSO/0.5% MC (5/95)) of the compounds to be tested with a concentration of 2 mg/mL for PO administration.
24 male cynomolgus monkeys were divided into 8 groups with 3 animals per group, and the drugs were administered through IV and PO after the animals had been fasting overnight. The dose for IV administration was 2 mg/kg and the dosing volume was 1 mL/kg; the dose for PO administration was 10 mg/kg and the dosing volume was 5 mL/kg.
In the IV administration groups, approximately 200 μL of blood was collected 0.083, 0.25, 0.5, 1, 2, 4, 6, 8, and 24 hours after administration; the collected blood samples were added into anticoagulation tubes containing K2-EDTA and centrifuged at 3000 rpm for 15 minutes; the plasma was isolated and stored at −80° C. In the PO administration groups, the blood was collected 0.25, 0.5, 1, 2, 4, 6, 8, and 24 hours after administration, and other operations were the same as in the IV administration group. After the plasma samples were pre-treated to precipitate the protein, the drug concentration in the plasma was determined by LC/MS/MS method. The linear range of the analysis method was 20.00-6000 nM. In PO administration group, urine was collected 0-24 hours after administration, and the drug concentration in the urine was determined by LC/MS/MS method. The linear range of the analysis method was 20.00-6000 nM.

URAT-1 = molecular target: T1, URAT-1 (Homo sapiens, UniProt Q96S37); assay: Inhibition of 14C-uric acid uptake in MDCK cells stably transfected with URAT-1 gene; type: cell-based; settings: MDCK cells stably transfected with URAT-1, substrate 14C-uric acid 50 μM; read-out: IC50 of the inhibitory effect on URAT-1
T1 construct: expressed in transfected cells
T1 sequence (Q96S37 1-553): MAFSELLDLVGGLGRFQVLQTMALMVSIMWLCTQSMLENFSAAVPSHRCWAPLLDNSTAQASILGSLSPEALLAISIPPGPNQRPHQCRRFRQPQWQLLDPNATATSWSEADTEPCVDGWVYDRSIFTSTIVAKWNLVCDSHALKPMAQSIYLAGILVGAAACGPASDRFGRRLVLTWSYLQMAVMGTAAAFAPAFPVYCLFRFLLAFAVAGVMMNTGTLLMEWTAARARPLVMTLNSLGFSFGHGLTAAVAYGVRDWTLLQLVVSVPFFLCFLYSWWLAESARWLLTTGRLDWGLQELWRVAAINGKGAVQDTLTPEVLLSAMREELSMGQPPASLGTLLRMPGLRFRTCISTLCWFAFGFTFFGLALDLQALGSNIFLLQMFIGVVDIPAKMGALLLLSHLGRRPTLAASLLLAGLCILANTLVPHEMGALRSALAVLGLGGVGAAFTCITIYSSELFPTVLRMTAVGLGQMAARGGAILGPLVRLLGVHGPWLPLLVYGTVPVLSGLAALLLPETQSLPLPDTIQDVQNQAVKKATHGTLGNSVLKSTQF
Experimental: The IC50 values of the compounds in inhibiting uric acid reabsorption were determined using MDCK (canine kidney cell) cell line stably transfected with DRAT-1 (uric acid transporter) gene.
DRAT-1 (MDCK) cell line: MDCK cells stably transfected with URAT-1 gene.
Cell culture medium: MEM (minimum essential medium Eagle) medium supplemented with 10% FBS (fetal bovine serum), 1% sodium pyruvate and 250 μg/mL G418 (geneticin).
1) The supernatant of the cell culture medium was removed by aspiration and the cells were rinsed with 10 mL PBS (phosphate buffered saline solution).
2) Preheated trypsin was added into the rinsed cell culture flask, and then the flask was rotated to make the trypsin evenly cover the bottom of the flask and the cells were digested at room temperature.
3) 10-15 mL of culture medium was used to suspend the cells in each T150 flask. 0.1 mL of the cells was sucked out and 2-fold diluted with trypan blue solution, and then the cells were counted. […]
^14C labelled-uric acid solution was diluted and added into the cell plate to obtain a final concentration of 50 μM. […] After adding the scintillation liquid, the signal was read in a liquid scintillation counter Tri-Carb.
According to the luminescent data, the inhibitory effect of the compounds on URAT-1 was analyzed, and the percent inhibition was calculated. […]

[11] = Solid stability test of the crystal form A of compound 1; type: physicochemical; settings: high temperature, high humidity and strong light
Excerpt: Samples placed under high temperature and high humidity conditions were sealed with aluminum foil paper and small holes were punched in the aluminum foil paper to ensure that the sample could fully contact with ambient air; samples placed under strong light conditions were sealed with threaded caps. The samples placed under different conditions were sampled and tested on the 5th day and 10th day (XRPD and HPLC), and the test results were compared with the initial test results obtained on day 0.

OAT-4 = molecular target: T2, OAT-4 (Homo sapiens, UniProt Q9NSA0); assay: Inhibition of substrate uptake in MDCK cells overexpressing OAT-4; type: cell-based; settings: MDCK-OAT4 cells
T2 construct: expressed in transfected cells; host or cells: MDCK (canine kidney) cells; the empty-vector control is pcDNA3.1
T2 sequence (Q9NSA0 1-550): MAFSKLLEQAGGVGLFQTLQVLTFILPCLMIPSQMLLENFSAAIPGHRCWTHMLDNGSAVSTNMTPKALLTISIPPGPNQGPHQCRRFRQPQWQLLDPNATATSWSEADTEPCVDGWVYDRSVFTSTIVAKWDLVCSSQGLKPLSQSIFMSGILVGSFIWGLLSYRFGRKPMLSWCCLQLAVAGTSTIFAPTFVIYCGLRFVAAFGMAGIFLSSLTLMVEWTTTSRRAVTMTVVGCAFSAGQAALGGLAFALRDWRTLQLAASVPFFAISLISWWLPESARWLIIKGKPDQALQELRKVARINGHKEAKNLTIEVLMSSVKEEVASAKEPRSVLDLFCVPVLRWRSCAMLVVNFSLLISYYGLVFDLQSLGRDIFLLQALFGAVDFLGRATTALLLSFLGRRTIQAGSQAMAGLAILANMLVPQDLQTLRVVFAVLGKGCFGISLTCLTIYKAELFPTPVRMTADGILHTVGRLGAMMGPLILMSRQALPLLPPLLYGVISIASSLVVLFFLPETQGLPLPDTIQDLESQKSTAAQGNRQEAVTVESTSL
Experimental: The IC50 values of the compounds in inhibiting reabsorption of specific substrates were determined using MDCK (canine kidney cell) cell line stably transfected with OAT-4 (organic anion transporter-4) gene.
The cell culture medium used in the intake inhibition experiment was DMEM (cell essential medium culture medium) supplemented with 10% FBS (containing penicillin and streptomycin). […] The cell suspensions were adjusted to obtain a density of 2.0-3.0×10^5 cells/mL with medium, and then inoculated into 24-well cell culture plates in an amount of 1 mL/well. The cells were cultured in an incubator with 5% CO2 and saturated air humidity at 37° C. for 2-3 days, after which the cells grew over the wells. […]
The uptake value of the transporter cells in the group containing only the radiolabeled substrate (deducting the uptake value U0 cells with empty vector in the background group) was defined as 100% (control, Uc), which was counted as a standard for the calculation of the percentage (%) of the intake value U (after deducting the background) in each administration group after adding the tested compounds against the intake value Uc in the control group, and the inhibitory rate (IR) of each concentration on the activity of the transporter was calculated to express the extent of the inhibitory effect of the compounds on the transporters. […]

[12] = male, cynomolgus monkey, plasma, po, 10 mg/kg, PO, 10 mg/kg
[13] = PO, 10 mg/kg, listed as Compound 1a (crystal form B)
[14] = male, cynomolgus monkey, plasma, iv, 2 mg/kg, IV, 2 mg/kg
[15] = IV, 2 mg/kg, listed as Compound 1b (crystal form C)
[16] = PO, 10 mg/kg, listed as Compound 1b (crystal form C)

O=C(O)CSc1nnc(Br)n1-c1ccc(C2CC2)c2ccccc12 (racemic) [(±)-Lesinurad, lesinurad, reference compound]
Amount of lesinurad and metabolites (Total 100) (Liver cells [1]): 98.1%
Amount of lesinurad and metabolites (Total 100) [2]: 100%
Amount of lesinurad and metabolites (Total 100) [3]: 92.1%
Amount of lesinurad and metabolites (Total 100) [4]: 100%
Amount of lesinurad and metabolites (Total 100) (Liver cells [5]): 100%
Percentage of the administered dose ([6]; Faeces): 1.5%
Percentage of the administered dose ([6]; Urine): 31.3%
UV area percentage (human liver cells): 95.60%
Amount of lesinurad and metabolites (Total 100) (Liver cells [7]): 92.1%
Amount of lesinurad and metabolites (Total 100) (Liver cells [8]): 100%
Amount of lesinurad and metabolites (Total 100) [9]: 100%
Area under the curve AUG0-inf ([10]; PO, 10 mg/kg): 69.3 µM·h
Mean drug concentration in urine (0-24 h) Curine, 0-24 h ([10]; PO, 10 mg/kg): 71.622 µM
half-life [10, 12]: 3.78 h
Cmax [10, 12]: 37.2 µM
MRT inf [10, 12]: 3.44 h
Tmax [10, 12]: 0.58 h

O=C(O)CSc1nnc(Br)n1-c1c(Cl)cc(C2CC2)c2ccccc12 (single isomer, unassigned) [Compound 1a]
Metabolite detection (human liver cells): no metabolite was detected
UV area percentage (human liver cells): 100%
Area under the curve AUG0-inf ([10]; IV, 2 mg/kg, listed as Compound 1a (crystal form B)): 15.709 µM·h
Area under the curve AUG0-inf [10, 13]: 89.77 µM·h
Bioavailability F [10, 13]: 132%
Mean drug concentration in urine (0-24 h) Curine, 0-24 h [10, 13]: 54.403 µM
Mutual transformation between the two axially chiral isomers in vivo [10]: no mutual transformation
Vd [10, 14]: 0.533 L/kg
clearance [10, 14]: 0.293 L/h/kg
half-life [10, 14]: 3.39 h
C0 [10, 14]: 32 µM
MRT inf [10, 14]: 1.83 h
half-life [10, 12]: 4.1 h
Cmax [10, 12]: 22.6 µM
MRT inf [10, 12]: 4.65 h
Tmax [10, 12]: 1.33 h

O=C(O)CSc1nnc(Br)n1-c1c(Cl)cc(C2CC2)c2ccccc12 (single isomer, unassigned) [Compound 1b]
IC50 (URAT-1): > 20 µM
Metabolite detection (human liver cells): no metabolite was detected
UV area percentage (human liver cells): 100%
Apparent volume of distribution Vdss [10, 15]: 0.661 L/kg
Area under the curve AUG0-inf [10, 15]: 16.092 µM·h
Clearance rate Cl [10, 15]: 0.287 L/h/kg
Half-life T1/2 [10, 15]: 4.28 h
Residence time MRT0-inf [10, 15]: 2.34 h
C0 ([10]; IV, 2 mg/kg, listed as Compound 1b (crystal form C), 2 mg/kg): 42.1 µM
Area under the curve AUG0-inf [10, 16]: 62.456 µM·h
Bioavailability F [10, 16]: 77.6%
Half-life T1/2 [10, 16]: 4.46 h
Residence time MRT0-inf [10, 16]: 5.74 h
Time to peak Tmax [10, 16]: 2.33 h
Cmax ([10]; PO, 10 mg/kg, listed as Compound 1b (crystal form C), 10 mg/kg): 13.2 µM
Mean drug concentration in urine (0-24 h) Curine, 0-24 h [10, 16]: 7.976 µM
Mutual transformation between the two axially chiral isomers in vivo [10]: no mutual transformation

O=C(O)CSc1nnc(Br)n1-c1c(Cl)cc(C2CC2)c2ccccc12 [Compound 1]
Solid stability (conclusion) [11]: good stability
IC50 (URAT-1): 10.4 µM
IC50 (OAT-4; substrate 3H-estrone ammonium sulfate, read-out: IC50 of the inhibition on OAT-4 transporting 3H-ES (3H-estrone ammonium sulfate)): 17.1 µM
IC50 (OAT-4; substrate 14C-uric acid, read-out: IC50 of the inhibition on OAT-4 transporting 14C-UA (14C-uric acid)): 7.92 µM
Area under the curve AUG0-inf ([10]; IV, 2 mg/kg): 18.389 µM·h
Area under the curve AUG0-inf ([10]; PO, 10 mg/kg): 120.062 µM·h
Mean drug concentration in urine (0-24 h) Curine, 0-24 h ([10]; PO, 10 mg/kg): 38.915 µM
Vd [10, 14]: 1.09 L/kg
clearance [10, 14]: 0.252 L/h/kg
half-life [10, 14]: 3.61 h
C0 [10, 14]: 42.2 µM
MRT inf [10, 14]: 4.01 h
bioavailability ([10]; male, cynomolgus monkey, plasma, po, 10 mg/kg, PO, 10 mg/kg, read-out: Bioavailability F): 131%
half-life [10, 12]: 3.34 h
Cmax [10, 12]: 46.1 µM
MRT inf [10, 12]: 3.76 h
Tmax [10, 12]: 0.83 h

O=C(O)CSc1nncn1-c1ccc(C2CC2)c2ccccc12 [Compound M2]
Percentage of the administered dose ([6]; Faeces): 4.8%
Percentage of the administered dose ([6]; Urine): 0.3%

O=C(O)CSc1nnc(Br)n1-c1ccc(C2(O)CC2)c2ccccc12 [Compound M3]
Amount of lesinurad and metabolites (Total 100) (Liver cells [1]): 1.45%
Amount of lesinurad and metabolites (Total 100) [3]: 7.9%
Amount of lesinurad and metabolites (Total 100) (Liver cells [5]): not detected
Percentage of the administered dose ([6]; Faeces): 0.3%
Percentage of the administered dose ([6]; Urine): 12.0%
Amount of lesinurad and metabolites (Total 100) (Liver cells [7]): 2.24%
Amount of lesinurad and metabolites (Total 100) (Liver cells [8]): not detected

O=C(O)CSc1nnc(Br)n1-c1ccc(C2CC2)c2c1C=CC(O)C2O (centres unmarked) [Compound M4]
Amount of lesinurad and metabolites (Total 100) (Liver cells [1]): 0.47%
Amount of lesinurad and metabolites (Total 100) (Liver cells [5]): not detected
Percentage of the administered dose ([6]; Faeces): 5.0%
Percentage of the administered dose ([6]; Urine): 15.7%
Amount of lesinurad and metabolites (Total 100) (Liver cells [7]): 5.69%
Amount of lesinurad and metabolites (Total 100) (Liver cells [8]): not detected

O=C(O)CSc1nncn1-c1ccc(C2(O)CC2)c2ccccc12 [Compound M5]
Percentage of the administered dose ([6]; Faeces): 3.6%
